Consider five compounds from patent publication US9512095B2, “Polymorph forms of desazadesferrithiocin analogs” (Ferrokin Biosciences, Inc., priority 2013, dated 2016).

“Also recorded” adds a separate entry of the source.

Series [1] is described as follows: Form inter-conversion by stirring in TBME/ethanol/water (20/5/1, v/v/v). The note with it: TBME/ethanol/water (20/5/1, v/v/v) at 18-23° C. for 4 days. It counts as physicochemical. The method, then: A mixture of Forms A, B, C, and D (present in equal amounts) of Compound 1 was stirred in TBME/ethanol/water (20/5/1, v/v/v) at 18-23° C. for 4 days.
A reaction vessel was charged with a mixture of Forms A-D of Compound 1 (25 mg, 1.0 wt.). A solution of TBME/EtOH/water (20/5/1, 10 vol) was added, and was stirred at 18-23° C. for 4 days. The solid was isolated by filtration, washed with recycled mother liquors, and dried under vacuum under a N2 atmosphere.
A reaction vessel was charged with Form A of Compound 1 (25 mg, 1.0 wt.). A solution of TBME/EtOH/water (20/5/1, 10 vol) was added, and was stirred at 18-23° C. for 4 days. The solid was isolated by filtration, washed with recycled mother liquors, and dried under vacuum under a N2 atmosphere.
A reaction vessel was charged with Form B of Compound 1 (25 mg, 1.0 wt.). A solution of TBME/EtOH/water (20/5/1, 10 vol) was added, and was stirred at 18-23° C. for 4 days. The solid was isolated by filtration, washed with recycled mother liquors, and dried under vacuum under a N2 atmosphere.
A reaction vessel was charged with Form C of Compound 1 (25 mg, 1.0 wt.). A solution of TBME/EtOH/water (20/5/1, 10 vol) was added, and was stirred at 18-23° C. for 4 days. The solid was isolated by filtration, washed with recycled mother liquors, and dried under vacuum under a N2 atmosphere.
A reaction vessel was charged with Form D of Compound 1 (25 mg, 1.0 wt.). A solution of TBME/EtOH/water (20/5/1, 10 vol) was added, and was stirred at 18-23° C. for 4 days. The solid was isolated by filtration, washed with recycled mother liquors, and dried under vacuum under a N2 atmosphere.

Series [2] in a line: Humidity exposure / comparative hygroscopicity study of solid forms (weight change, appearance, XRPD). Format: physicochemical.
Series [3] can be described thus: Human pharmacokinetics: open-label, randomized relative bioavailability study of Compounds 1 and 3 (plasma total, unbound and iron bound Compound 2). It counts as in vivo. The note with it: healthy adults, oral capsules; plasma Compound 2; relative to Compound 3, see Table 14. The method, then: The purpose of this Example is to characterize the pharmacokinetic profiles of Compound 1 (disodium salt) and its magnesium hydroxide salt counterpart, Compound 3:
This human study is part of an open-label, randomized, single dose, 3-period, relative bioavailability study in up to 28 healthy adults 18-65 years of age inclusive, investigating the pharmacokinetics, safety, and tolerability of Compounds 1 and 3. In this study, each study compound is administered as a single dose of 36.2 mg/kg/day or 18.1 mg/kg/day, respectively (as free acid), and as 2 doses of 36.2 mg/kg or 18.1 mg/kg, respectively (as free acid), given 12 hours apart. Table 13 provides dosages relative to free acid content.
The magnesium hydroxide salt (Compound 3) is administered as oral capsules in the following strengths: 50, 100, 200, 375 and 500 mg. The disodium salt (Compound 1) is administered as oral capsules in the following strengths: 54.1, 272.8 and 408.7 mg.
There will be 3 treatment periods in this study and 4 possible treatments. […]
Actual pharmacokinetic blood sample collection times versus time of dosing will be monitored. […]

The nature of series [4]: Drying of Form A under vacuum at elevated temperature (weight loss, XRPD, HPLC/1H NMR). Format: physicochemical. The method, then: Form A (1.0 g) was dried at 60° C. under reduced pressure for 24 h. During this time the sample decreased in weight by −7.3% w/w.
A sample of Form A was dried for 48 h under vacuum at 60° C. and reweighed. The material decreased in weight by 9.30% w/w.
The reactions conditions were repeated on a 1.0 g scale: a sample of Form A was dried for 24 hr under vacuum at 60° C. and reweighed. The material decreased in weight by 7.30% w/w. […] The material was allowed to cool to ambient temperature under vacuum before releasing the vacuum with nitrogen and transferring the Form D into a poly-tub under nitrogen.

A short description of series [5]: Humidity exposure / comparative hygroscopicity study of solid forms (weight change, appearance, XRPD). Format: physicochemical. The note with it: for XRPD form: 48 hrs; for XRPD (final form): 18-23° C., 48 h. The method, then:
X-Ray powder diffraction (XRPD) analysis was carried out using a Bruker D2 Phaser powder diffractometer employing a LynxEye detector. The samples underwent minimum preparation but, if necessary they were milled in a pestle and mortar before acquisition.
The samples were continuously spun during data collection and scanned using a step size of 0.02° two theta (2θ) between the range of 4°-40° two theta and a count time of 10 seconds per step. Data was processed using Bruker Diffrac. Suite.
Samples of Form D were placed in humidity chambers at 45%, 60% and 75% RH at 18-23° C. and their weight changes were monitored at intervals up to 48 h.
Accurately weighed samples of Form D were placed in humidity chambers at 45%, 60% and 75% R.H. and monitored for weight changes over 48 h.

Setting [6] is: 75% relative humidity (RH) at 15-25° C. for 1-2 days.

In the case of `COCCOCCOCCOc1cccc(C2=N[C@@](C)(C(=O)[O-])CS2)c1[O-].[Na+].[Na+]` [Form C, (S)-2-(2-hydroxy-3-(2-(2-(2-methoxyethoxy)ethoxy)ethoxy)phenyl)-4-methyl-4,5-dihydrothiazole-4-carboxylate disodium Form C polymorph], in series [1], the “Output form after stirring in solvent” value was “converted into Form A”. Further, in series [2] (75% RH at 15-25° C. for 22 h), the “Form after exposure to humidity” value is given as “re-generated Form A” and the “Weight gain on exposure to humidity” value is 18.5 % w/w.

Consider `COCCOCCOCCOc1cccc(C2=N[C@@](C)(C(=O)[O-])CS2)c1[O-].[Na+].[Na+]` [Compound 1, (S)-2-(2-hydroxy-3-(2-(2-(2-methoxyethoxy)ethoxy)ethoxy)phenyl)-4-methyl-4,5-dihydrothiazole-4-carboxylate disodium], for which, in series [3], the “AUC higher than Compound 3” value is roughly 22% and the “Cmax higher than Compound 3” value is given as roughly 35%.

Take `COCCOCCOCCOc1cccc(C2=N[C@@](C)(C(=O)[O-])CS2)c1[O-].[Na+].[Na+]` [Form A, (S)-2-(2-hydroxy-3-(2-(2-(2-methoxyethoxy)ethoxy)ethoxy)phenyl)-4-methyl-4,5-dihydrothiazole-4-carboxylate disodium Form A polymorph]: in series [1], the “Output form after stirring in solvent” value is “remained Form A”. Also, the “Form after exposure to humidity” value in series [2] (43% RH at 50° C. for 5 days) is on record as “remained as Form A”. Besides, the “Form after exposure to humidity” value in series [2] (setting [6]) is “remained as Form A”. Besides, in series [4] (40° C. under vacuum for 48 h), the Form after drying entry is “partial transformation of Form A to Form D”. Moreover, in series [4] (60° C. under vacuum for 24 hours), the Form after drying entry is reported as “converted to Form D; also recorded: converted into Form D”. In series [4] (60° C. under vacuum for 48 h), the “Chemical stability on drying (HPLC and 1H NMR)” value is reported as “decomposition had not occurred”; the “Decrease in weight on drying” value is reported as 9.30 % w/w; the “Form after drying (XRPD)” value is recorded as “Form D”.

`COCCOCCOCCOc1cccc(C2=N[C@@](C)(C(=O)[O-])CS2)c1[O-].[Na+].[Na+]` [Form B, (S)-2-(2-hydroxy-3-(2-(2-(2-methoxyethoxy)ethoxy)ethoxy)phenyl)-4-methyl-4,5-dihydrothiazole-4-carboxylate disodium Form B polymorph]: the “Output form after stirring in solvent” value in series [1] is reported as “converted into Form A”. In addition, in series [2] (setting [6]), the “Form after exposure to humidity” value is given as “re-generated Form A”.

On to `COCCOCCOCCOc1cccc(C2=N[C@@](C)(C(=O)[O-])CS2)c1[O-].[Na+].[Na+]` [Form D, (S)-2-(2-hydroxy-3-(2-(2-(2-methoxyethoxy)ethoxy)ethoxy)phenyl)-4-methyl-4,5-dihydrothiazole-4-carboxylate disodium Form D polymorph], for which the “Output form after stirring in solvent” value in series [1] is reported as “converted into Form A”. Besides, the “XRPD (final form)” value in series [2] (43% RH, 18-23° C., 48 h) was “Form A”; in series [5] (60% RH), “Form A”; in series [5] (75% RH), “Form A”. In addition, the XRPD form result in series [5] (45% R.H.), in series [5] (60% R.H.) and in series [5] (75% R.H.) was “Form A” each time. Besides, in series [5] (exposed to ≧43% relative humidity), the “Form after exposure to humidity” value is “reverts to Form A”.
